# Test: Human HepG2 cell viability assay in 384 well format
# Assay type: toxicity, cell-based
# Parameters: dose 125 nL, time 70.5 hour; cytotoxicity at 70.5 h: concentration not given beside the values
# Details: HepG2 cells, read-out: Inhibition
row,Compound,cytotoxicity at 70.5 h [%]
1,CCC(CC)C(=O)c1c[nH]c(C(=O)N2CCN(c3ccccc3)CC2)c1,-3.31
2,N#Cc1c(Cl)nsc1NCCN1CCOCC1,-10.1
3,Cc1cc(C(=O)NCc2ccc(-c3n[nH]cc3C(=O)N(C)C)cc2)on1,-2.38
4,CN(C)c1ncc(C(=O)N2C[C@H]3C[C@H](Oc4ccccc4)C[C@H]3C2)cn1,-0.787
5,c1ccc(CCN2CCCC(c3ccnc4nccn34)C2)cc1 (stereo not drawn),-1.37
6,Cc1cc(C(F)(F)F)nc(C2CCCN2S(C)(=O)=O)n1 (stereo not drawn),1.14
7,CCOCCN1CCC(c2cnccn2)CC1,21.8
8,CN1CCN(CC2(O)CCN(C(=O)CCc3ccccc3F)C2)CC1 (stereo not drawn),1.21
9,CO[C@H]1C[C@@H]2CN(C(=O)c3n[nH]c4c3CCCC4)C[C@@H]2C1,11
10,NC(=O)c1sc2ccccc2c1C1CCN(S(=O)(=O)N2CCOCC2)C1 (stereo not drawn),1.58
11,CCN(CC)S(=O)(=O)NCc1ccc(-c2ccc(C(N)=O)c(C)n2)cc1,-12.3
12,O=S1(=O)NC(c2ccnc(N3CCOCC3)n2)=Nc2ccccc21,-9.53
13,O=S1(=O)NC(c2ccnc(N3CCCC3)n2)=Nc2ccccc21,-3.65
14,COc1ccc2c(c1)c(-c1nc(N(C)C)ncc1CN)cn2C,12.9
15,Oc1cc(-c2nccs2)nc(C2CCN(Cc3cccs3)CC2)n1,-8.93
16,CNc1ncccc1CN1CCC1c1cc(N)nc(C)n1 (stereo not drawn),12.5
17,O=C(c1cc(-n2cccn2)ccc1Cl)N1CCCC(N2CCCC2)C1 (stereo not drawn),-5.55
18,CCNC(=O)C1(Cc2cc(-c3ccccc3)no2)CCCN(C)C1 (stereo not drawn),-5.43
19,Cc1nnc(N2CCOC(C)(C(=O)NC3CCCC3)C2)c2ccccc12 (stereo not drawn),-3.81
20,Cc1cc(-c2nccs2)nc(C2CCN(Cc3cccs3)CC2)n1,-5.42
21,COCCCNc1ncc(-c2cccc(F)c2)c(-c2nccn2C)n1,-6.45
22,O=C(CC1CCN(c2cccnn2)CC1)Nc1nncs1,-5.72
23,OC1(CN2CCC(Cc3ncccn3)CC2)CCOCC1,13.1
24,Cc1nc(N)cc(C2CCN2CCOc2ccccc2)n1 (stereo not drawn),-6.55

row,Compound,cytotoxicity at 70.5 h [%]
1,Cc1nc(NC2CCCC2)cc(C2CCN2c2ncccn2)n1 (stereo not drawn),-5.59
2,CNC(=O)C1CN(c2ccnc(C)n2)CCN1Cc1ccccc1 (stereo not drawn),-3.79
3,Cc1nc(C(=O)N2CCCC2c2cncc(CN3CCCC3)n2)co1 (stereo not drawn),-1.27
4,Cc1c[nH]c(C2CCCN(Cc3cccc(C(=O)O)c3)C2)n1 (stereo not drawn),-4.03
5,Cc1nc(CN2CC(CCCc3ccccn3)(C(=O)N(C)C)C2)co1,-1.84
6,Cc1nc(CN2CCC2(CCCc2ccccn2)C(=O)N(C)C)co1 (stereo not drawn),-5.18
7,CN(C)C(=O)C1(CCCc2ccccn2)CCN1Cc1nccn1C (stereo not drawn),-6.27
8,O=C(c1cc[nH]n1)N1CCCC1c1cncc(CN2CCOCC2)n1 (stereo not drawn),-4.87
9,Cn1cc(-c2ccc(C3CCCCN3Cc3cccnc3)cn2)cn1 (stereo not drawn),-1.27
10,Cc1cn[nH]c1C1CCCN1Cc1ccc(F)c(F)c1 (stereo not drawn),-0.872
11,CCn1cc(S(=O)(=O)N2CCCCCC2c2cc(C)on2)cn1 (stereo not drawn),2.09
12,Cc1cc2ccncc2n1CC1(O)CCN(C(=O)c2ccccn2)CC1,-1.41
13,Cc1nc(C)c(C(=O)N2Cc3ccccc3OCC2Cn2ccnc2)s1 (stereo not drawn),2.25
14,CN1C[C@@H](C(=O)N2CCCOCC2)[C@@]2(CCc3ccccc3C(=O)N2)C1,-1.32
15,Cc1nc(C)c(C(=O)N2Cc3ccccc3OCC2Cn2ccnc2)o1 (stereo not drawn),-1.03
16,CC(C(=O)N1CCCCC1)n1nc(-c2cccs2)cc(N)c1=O (stereo not drawn),14.9
17,O=C(Cn1cnc2cc3c(cc21)OCCCO3)NC1CCCC1,25.4
18,O=C(Cn1cnc2cc3c(cc21)OCCCO3)NC1CCCCC1,-1.58
19,CN1CCc2nc3cc(C(=O)NCc4cccs4)ccc3c(=O)n2CC1,-2.15
20,COCCNC(=O)c1ccc2c(=O)n3c(nc2c1)CCN(C)CC3,7.41
21,CC(C)N1CCCC(Cc2nccnc2Cl)CC1 (stereo not drawn),0.246
22,CN(C)c1ncc(I)c(C2CCCCN2S(C)(=O)=O)n1 (stereo not drawn),-3.68
23,CCn1nc(C)c(CN(Cc2ccccn2)Cc2ccccc2Cl)c1C,10.9
24,CN(C)Cc1cnc(CC2CCN(CCc3ccccc3)CC2)cn1,0.387

row,Compound,cytotoxicity at 70.5 h [%]
1,COc1ccccc1CN1CCC(Cc2cnc(CN(C)C)cn2)CC1,-2.82
2,O=C(CN1C[C@H]2C[C@H](OCc3ccccc3)C[C@H]2C1)N1CCOCC1,-4.18
3,Cc1nn(C)cc1S(=O)(=O)N[C@@H]1CCC[C@@H](n2ccnc2)[C@@H]1O,-6.03
4,Cc1ccnn1CCC(=O)N1CCCC[C@@]2(C)[C@@H]1CCC(=O)N2C,-4.62
5,CC(C)N1CCCC(Cc2nccnc2Cl)C1 (stereo not drawn),-4.45
6,CN1CC(=O)N(C2CCNCC2)Cc2c(NCC(C)(C)C)ncnc21,-9.73
7,CC(C)CC(=O)Nc1ccc(Oc2ccsc2C(=O)O)cc1,1.56
8,COCC(=O)Nc1ccc(Oc2ccsc2C(=O)O)cc1,-6.01
9,COc1ncc(C(F)(F)F)c(C(=O)O)c1Cl,24.8
10,COC(=O)c1ccc(-c2cc(C(F)(F)F)cc(N(C)C)n2)cc1,-6.66
11,COc1cc(OC)cc(-c2cc(N)on2)c1,-7.45
12,CCOC(=O)[C@H]1CNC[C@@H]1C(=O)OCC,3.89
13,OCc1cn(Cc2cccc(F)c2)nn1,-12.4
14,CC(O)c1cn(Cc2ccc(F)cc2)nn1 (stereo not drawn),-4.74
15,OC1(CNc2ccccc2)CCNCC1,-7.62
16,N#Cc1cc2cc(Cl)cnc2nc1O,-12
17,O=C(CC(SC1CCCCC1)C(=O)O)c1ccc(Cl)cc1 (stereo not drawn),-4.64
18,CCOc1ccc(C(=O)CC(SC2CCCCC2)C(=O)O)cc1 (stereo not drawn),-6.29
19,CNc1nc2ncc(Cl)cc2cc1C#N,-2.12
20,COc1ccc(NCC2(O)CCNCC2)cc1OC,6.97
21,CCSCCN1CCCN(S(C)(=O)=O)CC1,-2.21
22,CCOc1nnc(CN(CC)CC(=O)NC(C)(C)C)s1,10.3
23,N#CCCn1cnc2c(Br)cc(Br)cc2c1=O,-3.9
24,Cc1cc(F)c2c(c1)CCCN2Cc1cc(=O)n(C)c(=O)n1C,-8.84

row,Compound,cytotoxicity at 70.5 h [%]
1,CC(C)c1nnc(NC(=O)N(C)Cc2ccc(C(N)=O)cc2)s1,-4.8
2,CC(C)c1nnc(NC(=O)N(C)Cc2ccncc2)s1,-9.39
3,CCN(CC1CCOC1)C(=O)NCc1nnc2n1CCCCC2 (stereo not drawn),-7.23
4,CCOc1nnc(CN(CC)CC(=O)Nc2c(F)cccc2F)s1,-5.55
5,Cc1ccc(S(=O)(=O)N2CCN(CCC(N)=O)CC2)s1,-7.66
6,CCN(CC1CCOC1)C(=O)NCc1nnc2n1CCC2 (stereo not drawn),-5.15
7,COc1ccc(N2CCC(N(C)C(=O)Nc3ccncc3)CC2)cc1,0.31
8,Cc1ccc(F)c2c1CCCN2Cc1cc(=O)n(C)c(=O)n1C,-7.78
9,CN(C(=O)Nc1cccnc1)C1CCN(c2ccc(Cl)cc2)CC1,0.04
10,Cn1cc(C2CCCN2C(=O)c2cnc(-c3ccco3)s2)cn1 (stereo not drawn),-4.49
11,CCn1cc(S(=O)(=O)Nc2nc3c(s2)CC(C)CC3)cn1 (stereo not drawn),-6.65
12,Cc1ccccc1-n1cnc(Cl)c1CO,18.4
13,c1ccc(-c2nc(CCNCc3cccnc3)co2)cc1,-4.67
14,Cc1cc(NCCSc2nccn2C)n2ncnc2n1,17.1
15,c1ccc(-c2nc(CCNCc3ccncc3)co2)cc1,-5.13
16,COc1ccc(Br)cc1SCCS(C)(=O)=O,-4.19
17,Cc1ccc2c(c1)OC(C)CN2C(=O)c1c[nH]c(C)cc1=O (stereo not drawn),2.52
18,CC1c2ccc(F)cc2CCN1C(=O)c1[nH]c(=O)[nH]c(=O)c1N (stereo not drawn),-1.6
19,CC1c2cc(F)ccc2CCN1C(=O)c1[nH]c(=O)[nH]c(=O)c1N (stereo not drawn),-2.24
20,Cc1[nH]ccc1C(=O)N1CCOCC12CCCC2,-0.873
21,O=C(c1ccc[nH]1)N1CCOCC12CCCC2,30.2
22,Cc1ccc(C(=O)Nc2ccc3c(c2)N(C)CCN(C)C3)c(=O)[nH]1,-7.32
23,COCCN(Cc1ccccc1)C(=O)c1csc(-c2nnc[nH]2)n1,-5.25
24,CC1CCCCN1C(=O)c1ccc(=O)[nH]n1 (stereo not drawn),-5.98

row,Compound,cytotoxicity at 70.5 h [%]
1,CCc1nnsc1C(=O)N(C)Cc1nnc2n1CCC2,5.35
2,O=C(O)c1cc(NS(=O)(=O)c2ccccc2F)ccc1N1CCSCC1,-8.7
3,Cc1cccc(CS(=O)(=O)CC(O)Cn2cccn2)c1 (stereo not drawn),-4.24
4,CC(C)c1nc(CS(=O)(=O)Cc2noc(C3CC3)n2)cs1,-13.6
5,CN1CCN(c2ccccc2CNC(=O)Cc2ccccc2F)CC1,-5.79
6,N#CCCSc1nnc(Cc2ccccc2F)o1,-3.12
7,CCNC(=O)Nc1ccc(N2CCC(OC)CC2)c(C(F)(F)F)c1,-1.82
8,Fc1ccc(-c2noc(C3COCCO3)n2)cc1F (stereo not drawn),-1.66
9,CCc1cc(N2CCC(Nc3ccc(Cl)cn3)CC2)ncn1,12.5
10,CC(C)(C)c1cc(NC(=O)NCCc2nnc3n2CCC3)c(C#N)s1,8.88
11,Cc1ccc(Br)cc1NC(=O)NCC(O)CO (stereo not drawn),3.24
12,CC(C)c1cc(Br)ccc1NC(=O)NCC(O)CO (stereo not drawn),-3.27
13,CS(=O)(=O)CCSc1nnc(Cc2ccccc2F)o1,-1.57
14,COc1ccc(C(C)NCc2cccs2)cc1Cn1cccn1 (stereo not drawn),15.6
15,Cc1cccc(CN2CCCCC2c2n[nH]cc2-c2cc(C)no2)c1 (stereo not drawn),-6.6
16,CN1C[C@@H](C(=O)N(C)C)[C@@]2(CCc3ccccc3C(=O)N2)C1,0.772
17,c1cnc(Nc2cc(CCC3CCCNC3)ccn2)cn1 (stereo not drawn),-4.31
18,CC(C)N1CCCCC1c1nc(N(C)C)ncc1I (stereo not drawn),23.9
19,Cc1nc(C)c(C(=O)N2Cc3ccccc3OCC2CN(C)C)o1 (stereo not drawn),1.45
20,COc1ccccc1CN(CCCn1ccnc1)CC1CCOC1 (stereo not drawn),-4.43
21,CC(C)OCCCN(Cc1cnn(C)c1)Cc1ccccn1,21.5
22,Fc1ccccc1CN(CCCn1ccnc1)CC1CCOC1 (stereo not drawn),9.07

# From ChEMBL document CHEMBL3507680, “University of Dundee, Gates Library screen for HepG2 cell viability”
